The compounds below were run against T1, Tyrosine-protein phosphatase non-receptor type 1 (Homo sapiens, UniProt P18031) (assay: Inhibition of Homo sapiens (human) PTP1B expressed in Escherichia coli using PNPP as substrate).
T1 sequence (P18031 whole entry): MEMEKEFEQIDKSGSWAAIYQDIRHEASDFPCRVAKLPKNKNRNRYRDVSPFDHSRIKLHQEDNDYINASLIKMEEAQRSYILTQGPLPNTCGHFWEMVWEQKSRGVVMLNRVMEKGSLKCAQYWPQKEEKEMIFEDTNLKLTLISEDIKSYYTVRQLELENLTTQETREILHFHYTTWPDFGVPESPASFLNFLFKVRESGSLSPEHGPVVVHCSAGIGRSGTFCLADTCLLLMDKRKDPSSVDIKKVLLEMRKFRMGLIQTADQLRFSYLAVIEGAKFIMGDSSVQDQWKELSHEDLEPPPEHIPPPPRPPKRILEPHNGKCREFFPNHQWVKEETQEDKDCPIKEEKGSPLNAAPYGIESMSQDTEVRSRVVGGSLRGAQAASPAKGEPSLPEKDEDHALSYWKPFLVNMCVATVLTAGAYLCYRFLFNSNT
Compound `COc1ccc(CC(=O)N[C@@H](Cc2ccccc2)C(=O)N[C@@H](Cc2ccc(C3=CC(=O)NS3(=O)=O)cc2)C(N)=O)cc1` has an IC50 of 1.6 µM.
Compound `COc1ccc(CC(=O)N[C@@H](Cc2ccccc2)C(=O)N[C@@H](Cc2ccc(C3CC(=O)NS3(=O)=O)cc2)C(N)=O)cc1` (stereo partly specified) has an IC50 of 0.17 µM.
In the case of `NC(=O)[C@H](Cc1ccc(C2CC(=O)NS2(=O)=O)cc1)NC(=O)[C@H](Cc1ccccc1)NC(=O)CCc1ccccc1` (stereo partly specified), the IC50 is reported as 0.34 µM.
In the case of `NC(=O)[C@H](Cc1ccc(C2CC(=O)NS2(=O)=O)cc1)NC(=O)[C@H](Cc1ccccc1)NC(=O)Cc1ccccc1` (stereo partly specified), the IC50 is reported as 0.18 µM.
With `CCCCCNC(=O)[C@H](Cc1ccc(C2=CC(=O)NS2(=O)=O)cc1)NC(=O)[C@H](Cc1ccccc1)NC(=O)Cc1ccc(OC)cc1` the IC50 was 1.2 µM.
`NC(=O)[C@H](Cc1ccc(C2=CC(=O)NS2(=O)=O)cc1)NC(=O)[C@H](Cc1ccccc1)NC(=O)Cc1ccccc1` was tested, and the IC50 was 1 µM.
`CC(=O)N[C@@H](Cc1ccccc1)C(=O)N[C@@H](Cc1ccc(C2CC(=O)NS2(=O)=O)cc1)C(N)=O` (stereo partly specified) showed an IC50 of 0.661 µM.
`NC(=O)[C@H](Cc1ccc(C2=CC(=O)NS2(=O)=O)cc1)NC(=O)[C@H](Cc1ccccc1)NC(=O)Cc1ccc(C(F)(F)F)cc1` gave an IC50 of 1.4 µM.
Compound `CC(=O)N[C@@H](Cc1ccccc1)C(=O)N[C@@H](Cc1ccc([C@@H]2CC(=O)NS2(=O)=O)cc1)C(N)=O` has an IC50 of 0.18 µM.
Work on `CCCCCNC(=O)[C@H](Cc1ccc(C2=CS(=O)(=O)NC2=O)cc1)NC(=O)[C@H](Cc1ccccc1)NC(=O)Cc1ccc(OC)cc1` yielded an IC50 of 6 µM.
`CC(C)(C)OC(=O)N[C@@H](Cc1ccc(C2CC(=O)NS2(=O)=O)cc1)C(N)=O` (stereo partly specified) gave an IC50 of 70 µM.
In the case of `NC(=O)[C@H](Cc1ccc(C2=CC(=O)NS2(=O)=O)cc1)NC(=O)[C@H](Cc1ccccc1)NC(=O)c1ccccc1`, the IC50 is reported as 1.8 µM.
`NC(=O)[C@H](Cc1ccc(C2=CC(=O)NS2(=O)=O)cc1)NC(=O)[C@@H](N)Cc1ccccc1` gave an IC50 of 100 µM.
`NC(=O)[C@H](Cc1ccc(C2=CC(=O)NS2(=O)=O)cc1)NC(=O)[C@H](Cc1ccccc1)NC(=O)CCc1ccccc1` was tested, and the IC50 was 2.7 µM.
Work on `CCCCCNC(=O)[C@H](Cc1ccc(N2CC(=O)NS2(=O)=O)cc1)NC(=O)[C@H](Cc1ccccc1)NC(=O)Cc1ccc(OC)cc1` yielded an IC50 of 1.5 µM.
`CC(=O)N[C@@H](Cc1ccc(C2CC(=O)NS2(=O)=O)cc1)C(N)=O` (stereo partly specified) showed an IC50 of 100 µM.
`NC(=O)[C@@H](N)Cc1ccc(C2CC(=O)NS2(=O)=O)cc1` (stereo partly specified) was tested, and the IC50 was 100 µM.
For `NC(=O)[C@H](Cc1ccc(C2=CC(=O)NS2(=O)=O)cc1)NC(=O)[C@H](Cc1ccccc1)NC(=O)Cc1ccc(O)cc1`, the IC50 was 0.791 µM.
`NC(=O)[C@H](Cc1ccc(C2CC(=O)NS2(=O)=O)cc1)NC(=O)[C@H](Cc1ccccc1)NC(=O)Cc1ccc(O)cc1` (stereo partly specified) was tested, and the IC50 was 0.17 µM.
For `NC(=O)[C@H](Cc1ccc(C2CC(=O)NS2(=O)=O)cc1)NC(=O)[C@H](Cc1ccccc1)NC(=O)Cc1ccc(C(F)(F)F)cc1` (stereo partly specified), the IC50 was 0.17 µM.
In the case of `NC(=O)[C@H](Cc1ccc(C2CC(=O)NS2(=O)=O)cc1)NC(=O)[C@@H](N)Cc1ccccc1` (stereo partly specified), the IC50 is reported as 100 µM.

— ChEMBL document CHEMBL3045376, “Pharmacophore modeling and 3D QSAR analysis of isothiazolidinedione derivatives as PTP1B inhibitors” (Med Chem Res, 2013)
